Where “and” joins values, the source holds several entries; their conditions need not be identical. Identical values can stand only once. Marks after values point to notes of the source that are not given here.
Key:
[1] = Mouse plasma ciclopirox pharmacokinetics after 10 mg/kg IV bolus; format: in vivo; conditions: for Plasma Ciclopirox Concentrations: individual animals A-F, phosphate disodium salt
Description: The plasma ciclopirox concentrations in (ng/mL) were determined following bolus administration of ciclopirox-POM prodrug at a 10 mg/kg IV bolus in a mouse model. Time points where data collected are shown in Table 1 to be at 5, 15, 30, 60, 90, 120, 180, and 240 minutes along with the data. […] The IV bolus formulation for prodrug was in 25 mM phosphate buffer.
(§1) Time points where data collected are shown in Table 1 to be at 5, 15, 30, 60, 90, 120, 180, and 240 minutes along with the data.
Additionally, mouse intravenous dose pharmacokinetics were determined.
(§2) The IV bolus and oral administrations are described above.

[2] = Mouse plasma ciclopirox pharmacokinetics after 30 mg/kg oral dose; format: in vivo
Description: The plasma ciclopirox (i.e., CPX) concentrations in (ng/mL) were determined following bolus administration of ciclopirox-POM prodrug at a 30 mg/kg orally in a mouse model. Time points where data collected are shown in Table 3 to be at 5, 15, 30, 60, 90, 120, 180, and 240 minutes along with the data. […] The oral formulation is a composition having Orasweet SF along with the […].
as §1
Additionally, mouse oral dose pharmacokinetics were determined.
as §2

[3] = Detection of prodrug in plasma and urine after administration; format: in vivo
Text: Accordingly, ciclopirox is readily bioavailable when given IV as the prodrug. […] Based on the data, it is reasonable to believe that the ciclopirox-POM prodrug is rapidly converted to ciclopirox.
Accordingly, ciclopirox is readily bioavailable when given IV as the prodrug. […] Based on the data, it is reasonable to believe that the ciclopirox-POM prodrug is rapidly converted back to ciclopirox.

[4] = tested on: NMIBC and MIBC cell lines; test: Anticancer activity in bladder cancer cell lines; format: cell-based
Text: (§3) Bladder cancer presents as two diseases, NMIBC and muscle invasive bladder cancer (MIBC). Approximately three-fourths of newly diagnosed bladder cancer patients present with NMIBC. NMIBC, as it invades into bladder muscle, becomes MIBC. MIBC often metastasizes, requiring systemically administered chemotherapy agents. […] The ciclopirox from ciclopirox-POM prodrug delivery inhibits cell proliferation, colony formation, and spheroid formation in well characterized NMIBC and MIBC cell lines. Although that ciclopirox's fungicidal activity is mediated through its ability to chelate iron, and interrupt iron-dependent intracellular processes, ciclopirox in vitro anti-cancer activity in independent of commercially available iron chelators. […] Accordingly, ciclopirox-POM prodrug can be used in treatment of all forms of bladder cancer, and in cancer stem cells of many different cancers where the Notch signaling pathway is active.

[5] = tested on: Notch-1 signaling pathway; test: Inhibition of Notch-1 signaling; format: cell-based; conditions: bladder cancer
Text: The prodrug converts to the active ciclopirox compound that effectively suppresses stem cells in bladder cancer and specifically targets the Notch-1 signaling pathway. […] Suppressing Notch is a significant activity for the compound to inhibit bladder and other cancers where Notch signaling is active (e.g. colon cancer, osteosarcoma).
as §3

[6] = in vivo, iv, 10 mg/kg, Plasma Ciclopirox Concentrations
[7] = in vivo, iv, 10 mg/kg, Plasma Ciclopirox Concentrations, Mean
[8] = mouse, in vivo, po, 30 mg/kg, Plasma Ciclopirox Concentrations
[9] = mouse, in vivo, po, 30 mg/kg, Plasma Ciclopirox Concentrations, Mean
[10] = ciclopirox, mouse, 30 mg/kg oral

Structure (SMILES): Cc1cc(C2CCCCC2)n(O)c(=O)c1 [Ciclopirox Olamine, reference compound]
- Alpha rate constant ([1]; in vivo, iv, 10 mg/kg): 0.08802 min⁻¹
- Beta rate constant ([1]; in vivo, iv, 10 mg/kg): 0.01208 min⁻¹
- Vdbeta ([1]; in vivo, iv, 10 mg/kg): 4.5652 L/kg
- clearance ([1]; in vivo, iv, 10 mg/kg): 55.2 mL/min/kg
- AUC ([1]; in vivo, iv, 10 mg/kg, AUC (CPX AUC)): 2340 ng·h/mL
- half-life ([1]; in vivo, iv, 10 mg/kg, Alpha Half-life): 7.87 min
- half-life ([1]; in vivo, iv, 10 mg/kg, Beta Half-life): 57.4 min
- concentration at 5 min [1, 6]: 6090 ng/mL
- concentration at 60 min [1, 6]: 171 ng/mL
- concentration at 90 min [1, 6]: 45.2 ng/mL
- concentration at 120 min [1, 6]: 46.1 ng/mL
- concentration at 240 min [1, 6]: 12 ng/mL
- concentration at 5 min [1, 7]: 4880 ng/mL
- concentration at 15 min [1, 7]: 892 ng/mL
- concentration at 30 min [1, 7]: 354 ng/mL
- concentration at 60 min [1, 7]: 133 ng/mL
- concentration at 90 min [1, 7]: 58.7 ng/mL
- concentration at 120 min [1, 7]: 43.2 ng/mL
- concentration at 180 min [1, 7]: 25.2 ng/mL
- concentration at 240 min [1, 7]: 15.9 ng/mL
- bioavailability ([2]; mouse, in vivo, po): 21%
- AUC ([2]; mouse, in vivo, po, 30 mg/kg): 956 ng·h/mL
- Beta rate constant ([2]; mouse, in vivo, po, 30 mg/kg): 0.00916 min⁻¹
- CL/F ([2]; mouse, in vivo, po, 30 mg/kg): 405 mL/min/kg
- Cmax ([2]; mouse, in vivo, po, 30 mg/kg): 548 ng/mL
- Tmax ([2]; mouse, in vivo, po, 30 mg/kg): 15 min
- half-life ([2]; mouse, in vivo, po, 30 mg/kg): 75.7 min
- Plasma Ciclopirox Concentrations ([2]; mouse, in vivo, po, 30 mg/kg, 0 min): 0 ng/mL
- concentration at 0 min [2, 8]: 0 ng/mL
- concentration at 15 min [2, 8]: 478 ng/mL
- concentration at 30 min [2, 8]: 427 ng/mL
- concentration at 180 min [2, 8]: 78.2 ng/mL
- concentration at 240 min [2, 8]: 72.3 ng/mL
- concentration at 0 min [2, 9]: 0 ng/mL
- concentration at 15 min [2, 9]: 548 ng/mL
- concentration at 30 min [2, 9]: 449 ng/mL
- concentration at 60 min [2, 9]: 309 ng/mL
- concentration at 90 min [2, 9]: 260 ng/mL
- concentration at 120 min [2, 9]: 151 ng/mL
- concentration at 180 min [2, 9]: 80.1 ng/mL
- concentration at 240 min [2, 9]: 74.7 ng/mL

Structure (SMILES): Cc1cc(C2CCCCC2)n(OCOP(=O)([O-])[O-])c(=O)c1.[Na+].[Na+] [Ciclopirox-POM]
- Plasma Ciclopirox Concentrations ([1]; 10 mg/kg IV bolus, 5 min, 10 mg/kg): 7280 ng/mL and 7320 ng/mL and 6370 ng/mL and 9700 ng/mL and 8500 ng/mL and 8860 ng/mL
- Plasma Ciclopirox Concentrations, Mean ([1]; 10 mg/kg IV bolus, 5 min): 8005 ng/mL
- Plasma Ciclopirox Concentrations ([1]; 10 mg/kg IV bolus, 15 min, 10 mg/kg): 3310 ng/mL and 3180 ng/mL and 1520 ng/mL and 1370 ng/mL and 4010 ng/mL and 3190 ng/mL
- Plasma Ciclopirox Concentrations, Mean ([1]; 10 mg/kg IV bolus, 15 min): 2763.3 ng/mL
- Plasma Ciclopirox Concentrations ([1]; 10 mg/kg IV bolus, 30 min, 10 mg/kg): 994 ng/mL and 1200 ng/mL and 986 ng/mL and 1030 ng/mL and 1080 ng/mL and 452 ng/mL
- Plasma Ciclopirox Concentrations, Mean ([1]; 10 mg/kg IV bolus, 30 min): 957 ng/mL
- Plasma Ciclopirox Concentrations ([1]; 10 mg/kg IV bolus, 60 min, 10 mg/kg): 410 ng/mL and 259 ng/mL (2×) and 284 ng/mL and 409 ng/mL and 436 ng/mL
- Plasma Ciclopirox Concentrations, Mean ([1]; 10 mg/kg IV bolus, 60 min): 342.8 ng/mL
- Plasma Ciclopirox Concentrations ([1]; 10 mg/kg IV bolus, 90 min, 10 mg/kg): 97.6 ng/mL and 157 ng/mL and 74.2 ng/mL and 79.1 ng/mL and 162 ng/mL and 168 ng/mL
- Plasma Ciclopirox Concentrations, Mean ([1]; 10 mg/kg IV bolus, 90 min): 123 ng/mL
- Plasma Ciclopirox Concentrations ([1]; 10 mg/kg IV bolus, 120 min, 10 mg/kg): 58 ng/mL and 73.7 ng/mL and 57.9 ng/mL and 19.3 ng/mL and 71.7 ng/mL and 84.8 ng/mL
- Plasma Ciclopirox Concentrations, Mean ([1]; 10 mg/kg IV bolus, 120 min): 60.9 ng/mL
- Plasma Ciclopirox Concentrations ([1]; 10 mg/kg IV bolus, 180 min, 10 mg/kg): 18.1 ng/mL and 23 ng/mL and 19.5 ng/mL and 34.8 ng/mL and 19.7 ng/mL and 37.7 ng/mL
- Plasma Ciclopirox Concentrations, Mean ([1]; 10 mg/kg IV bolus, 180 min): 25.5 ng/mL
- Plasma Ciclopirox Concentrations ([1]; 10 mg/kg IV bolus, 240 min, 10 mg/kg): 13 ng/mL and 10 ng/mL (2×) and 15 ng/mL and 12 ng/mL and 8 ng/mL
- Plasma Ciclopirox Concentrations, Mean ([1]; 10 mg/kg IV bolus, 240 min): 11.1 ng/mL
- CPX Bioavailability Following Prodrug Administration ([1]; IV administration, prodrug compared to olamine salt): 1.143
- Alpha Half-life ([1]; ciclopirox, 10 mg/kg IV bolus): 9.84 min
- Alpha rate constant ([1]; ciclopirox, 10 mg/kg IV bolus): 0.07043 min⁻¹
- Beta Half-life ([1]; ciclopirox, 10 mg/kg IV bolus): 35.92 min
- Beta rate constant ([1]; ciclopirox, 10 mg/kg IV bolus): 0.01929 min⁻¹
- CL ([1]; ciclopirox, 10 mg/kg IV bolus): 48.275* mL/min/kg
- Vdbeta ([1]; ciclopirox, 10 mg/kg IV bolus): 2.502 L/kg
- Beta Half-life [2, 10]: 52.76 min
- Beta rate constant [2, 10]: 0.01316 min⁻¹
- CL/F [2, 10]: 722.06 mL/min/kg
- Cmax [2, 10]: 520.3 ng/mL
- Tmax [2, 10]: 15 min
- Bioavailability following oral administration ([2]; mice, oral administration): 12%
- Plasma Ciclopirox Concentrations ([2]; mouse, 30 mg/kg oral dose, 0 min, individual animals A-F): 0 ng/mL
- Plasma Ciclopirox Concentrations, Mean ([2]; mouse, 30 mg/kg oral dose, 0 min): 0 ng/mL
- Plasma Ciclopirox Concentrations ([2]; mouse, 30 mg/kg oral dose, 15 min, individual animals A-F, phosphate disodium salt, 30 mg/kg): 388 ng/mL and 646 ng/mL and 857 ng/mL and 245 ng/mL and 479 ng/mL and 507 ng/mL
- Plasma Ciclopirox Concentrations, Mean ([2]; mouse, 30 mg/kg oral dose, 15 min): 520.3 ng/mL
- Plasma Ciclopirox Concentrations ([2]; mouse, 30 mg/kg oral dose, 30 min, individual animals A-F, phosphate disodium salt, 30 mg/kg): 302 ng/mL and 252 ng/mL and 264 ng/mL and 317 ng/mL and 207 ng/mL and 342 ng/mL
- Plasma Ciclopirox Concentrations, Mean ([2]; mouse, 30 mg/kg oral dose, 30 min): 280.7 ng/mL
- Plasma Ciclopirox Concentrations ([2]; mouse, 30 mg/kg oral dose, 60 min, individual animals A-F, phosphate disodium salt, 30 mg/kg): 129 ng/mL and 404 ng/mL and 154 ng/mL and 229 ng/mL and 171 ng/mL and 207 ng/mL
- Plasma Ciclopirox Concentrations, Mean ([2]; mouse, 30 mg/kg oral dose, 60 min): 215.7 ng/mL
- Plasma Ciclopirox Concentrations ([2]; mouse, 30 mg/kg oral dose, 90 min, individual animals A-F, phosphate disodium salt, 30 mg/kg): 91 ng/mL and 66.8 ng/mL and 146 ng/mL and 137 ng/mL and 120 ng/mL and 80.3 ng/mL
- Plasma Ciclopirox Concentrations, Mean ([2]; mouse, 30 mg/kg oral dose, 90 min): 106.9 ng/mL
- Plasma Ciclopirox Concentrations ([2]; mouse, 30 mg/kg oral dose, 120 min, individual animals A-F, phosphate disodium salt, 30 mg/kg): 72.5 ng/mL and 60.6 ng/mL and 64.6 ng/mL and 81.4 ng/mL and 83.6 ng/mL
- Plasma Ciclopirox Concentrations, Mean ([2]; mouse, 30 mg/kg oral dose, 120 min): 72.5 ng/mL
- Plasma Ciclopirox Concentrations ([2]; mouse, 30 mg/kg oral dose, 180 min, individual animals A-F, phosphate disodium salt, 30 mg/kg): 36.8 ng/mL and 45.1 ng/mL and 59.1 ng/mL and 66.4 ng/mL and 44.9 ng/mL and 44 ng/mL
- Plasma Ciclopirox Concentrations, Mean ([2]; mouse, 30 mg/kg oral dose, 180 min): 49.4 ng/mL
- Plasma Ciclopirox Concentrations ([2]; mouse, 30 mg/kg oral dose, 240 min, individual animals A-F, phosphate disodium salt, 30 mg/kg): 9.51 ng/mL and 19 ng/mL (2×) and 14.7 ng/mL and 38.1 ng/mL
- Plasma Ciclopirox Concentrations, Mean ([2]; mouse, 30 mg/kg oral dose, 240 min): 20.1 ng/mL
- Foral ([2]; mouse, oral 30 mg/kg v. IV bolus 10 mg/kg of the same substance): 0.06686
- CPX Bioavailability Following Prodrug Administration ([2]; mouse, oral administration, prodrug compared to olamine salt): 0.5603
- Detection of the prodrug in plasma ([3]; following IV and oral administration): inability to detect
- Detection of the prodrug in plasma and urine ([3]; following IV, oral, subcutaneous and intraperitoneal administration): inability to detect

Structure (SMILES): Cc1cc(C2CCCCC2)n(O)c(=O)c1 [ciclopirox, 6-cyclohexyl-1-hydroxy-4-methylpyridin-2(1H)-one]
- Cell proliferation [4]: inhibits
- Colony formation [4]: inhibits
- Spheroid formation [4]: inhibits
- Notch-1 signaling pathway [5]: inhibits
